Where two headings read alike, the source gives them in different places.
Legend:
[1] = biological target: T1, human μ-opioid receptor (Homo sapiens, UniProt P35372); assay: cell-based; settings: for EC50: CHO cells expressing human μ-opioid receptor, read-out: Agonist EC50
T1 construct: expressed in transfected cells; host or cells: CHO (Chinese hamster ovary) cells
Excerpt: (§1) This Example measures the ability of certain compounds of the present disclosure to effect an agonist or antagonist response when exposed to recombinant human μ-opioid receptor expressed in CHO cells.
(§2) The general procedure follows the protocol described by Wang, J.-B., Johnson, P. S., Perscio, A. M., Hawkins, A. L., Griffin, C. A. and Uhl, G. R. (1994). FEBS Lett., 338: 217-222. More specifically, the assays included each of the compounds indicated in Table 1 and recombinant Chinese hamster ovary (CHO) cells expressing the human μ-opioid receptor on their cell surfaces. The control reaction included 1 μM DAMGO. The reaction mixtures were incubated at 37° C. for 10 min, and the reaction product was cyclic AMP (cAMP). The samples were submitted to homogeneous time resolved fluorescence (HTRF®). EC50 values (concentration producing a half-maximal specific response) were determined by non-linear regression fit using the Hillplot software.

[2] = Pharmacokinetics following PO administration to rats (plasma, HPLC/MS); settings: male, Sprague Dawley, rat, 20 mg/kg
Method: (§3) At specified time points, blood samples were drawn, harvested for plasma via centrifugation at 5,400 rpm at 4° C. for 5 min, and 100 microliters (μl) plasma transferred from each sample into a fresh tube containing 2 μl of 50% formic acid. The tubes were vortexed for 5-10 seconds, immediately placed in dry ice and then stored in a −80° C. freezer until analysis by HPLC/MS.
as §3, with “μl” for “microliters (μl)”
as §3, with “μl” for “microliters (μl)”
as §3, with “μl” for “microliters (μl)”

[3] = tested on: inflammatory pain; assay: Carrageenan-induced inflammatory paw model (Randall Selitto test); assay type: in vivo, Sprague-Dawley rats; settings: 200 mg/kg Compound AG-2 oral gavage three hours after carrageenan; FIG. 10
Method: The carrageenan-induced inflammatory paw model (see, e.g., Bileviciute-Ljungar I et al, 2006, J Pharmacol Exp Ther 317, 220-227) was used to assess the ability of peripheral opioid agonist Compound AG-2 to reduce inflammatory pain, by measuring paw withdrawal latency in response to mechanical stimulation of the paw.
Sprague-Dawley rats, fasted for approximately 18 hours prior to compound administration, were used for this study. Rats were injected in the plantar surface of the right hindpaw with 100 ul of a 1% carrageenan solution formulated in water (carrageenan available from Spectrum Chemical Manufacturing Corporation, Gardena, Calif.) three hours prior to compound administration, in order to elicit maximum edema formation. The hindpaw withdrawal latency to mechanical stimulation for each paw was tested before compound administration for use as a pre-treatment baseline, and at specific time points after compound administration using the Randall Selitto test (instrument available from IITC Inc. Life Science, Woodland Hills, Calif.). Briefly, the hindpaw was pinched until the animal retracted its paw. The amount of force (in grams) required to elicit a withdrawal response was assessed. Two repeat measures were taken at each time point, and the averaged value from the inflamed paw was used to quantify the percentage of change from the pre-treatment baseline. […]

[4] = male, Sprague Dawley, rat, in vivo, iv, 10 mg/kg
[5] = Pharmacokinetics following IV administration to rats (plasma, HPLC/MS); settings: male, Sprague Dawley, rat
[6] = biological target: T1, human μ-opioid receptor; assay: In vitro human μ-opioid receptor antagonist cellular functional assay (cAMP, HTRF); assay type: cell-based; settings: for EC50: CHO cells expressing human μ-opioid receptor
Excerpt: as §1, §2

[7] = tested on: CNS opioid receptors; assay: Rat tail flick latency assay, morphine induced analgesia; assay type: in vivo, Sprague Dawley rats; settings: antagonist subcutaneously 70 min after 5 mg/kg morphine; Compound AN-1, AN-6 0.3 mg/kg, naltrexone 1.8 mg/kg; FIG. 8
Method: A rat tail flick latency assay (see, e.g., Tejwani G et al., 2002, Anesth Analg 94, 1542-1546) was used to determine whether peripheral opioid antagonists of the embodiments were capable of effecting antagonist activity at opioid receptors in the central nervous system. In such an assay, the tails of rats are exposed to a noxious stimulus, such as heat, and tail withdrawal latency is measured. The latency (i.e., time between exposure and reaction) is an indication of the amount of pain experienced by the rat.
In this study, the tails of healthy male Sprague Dawley rats (5 per group) were painted with India ink (i.e., a 6-cm portion, starting at the tip). The rats were then placed in Broome Restrainers and allowed to acclimate for at least 15 min. At the conclusion of the acclimation period, baseline tail withdrawal latencies (baseline latency) were measured by exposing the rats to a focused light beam of 80 volts at a position 6.5 cm above the tail until the rats flicked their tail out of the path of the light beam. This step was repeated twice for each rat, in two spots, i.e., 2 cm and 4 cm from the tip of the tail. The responses were averaged and used as a baseline latency value for comparison to post-drug treatment latency values.

[8] = Plasma and cerebrospinal fluid penetration following IV administration to rats; settings: for Compound conc. in CSF / Compound conc. in plasma / Plasma/CSF partitioning coefficient / concentration at 2 min: rats; for concentration at 2 min: male, Sprague Dawley, rat, in vivo, iv, 10 mg/kg, Compound conc. in CSF
[9] = IV 10 mg/kg Compound AN-1, 2-minute time point
[10] = IV 10 mg/kg of each compound, 2-min time point (Table 12)

T1 sequence (P35372 whole entry): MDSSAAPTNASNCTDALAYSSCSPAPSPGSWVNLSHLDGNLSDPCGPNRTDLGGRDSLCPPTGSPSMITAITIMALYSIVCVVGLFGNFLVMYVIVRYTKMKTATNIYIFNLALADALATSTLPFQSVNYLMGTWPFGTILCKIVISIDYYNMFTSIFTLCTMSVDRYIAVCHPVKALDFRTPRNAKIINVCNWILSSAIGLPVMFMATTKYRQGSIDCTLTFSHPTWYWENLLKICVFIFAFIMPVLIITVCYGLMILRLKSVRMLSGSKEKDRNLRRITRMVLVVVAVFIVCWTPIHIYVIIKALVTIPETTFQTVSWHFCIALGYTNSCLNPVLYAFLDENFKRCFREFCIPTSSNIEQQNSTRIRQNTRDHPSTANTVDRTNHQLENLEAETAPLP

COc1ccc2c3c1O[C@H]1C(OC(=O)N(C)CCNC(=O)[C@@H](CCCNC(=N)N)NC(=O)CC(=O)O)=CC[C@@]4(O)[C@@H](C2)N(C)CC[C@]314 [Compound AG-2, N-(oxycodone-6-enol-carbonyl-methylamino)ethylamine-D-arginine-malonic acid]
OC/Compound AG-2 relative potency [1]: 10.9
EC50 ([1]; Table 1, Example 9, 37° C. 10 min): 850 nM
Cmax [2]: 46.1 ± 0.9 ng/mL
Tmax [2]: 37.5 ± 15 min
increase in pain tolerance compared to the untreated rats [3]: approximately 50%
Compound conc. in CSF [4]: 22.8 ng/mL
Compound conc. in plasma [4]: 28,600 ng/mL
Plasma/CSF partitioning coefficient [4]: 1,254
Cmax ([5]; 2 mg/kg): 3410 ng/mL

CN(CCNC(=O)[C@@H](CCCNC(=N)N)NC(=O)CC(=O)O)C(=O)OC1=CCC2C3Cc4ccc(O)c5c4[C@@]2(CCN3C)[C@H]1O5 (stereo partly drawn) [Compound AG-4, N-(hydromorphone-6-enol-carbonyl-methyl-amino)ethylamine-D-arginine-malonic acid]
HM/Compound AG-4 relative potency ([1]; EC50 at the human μ-opioid receptor, hydromorphone to Compound AG-4): 16.1
EC50 ([1]; Table 15, Example 24): 37 nM

CN(CCNC(=O)[C@@H](CCCNC(=N)N)NC(=O)CC(=O)O)C(=O)OC1=CC[C@@]2(O)[C@H]3Cc4ccc(O)c5c4[C@@]2(CCN3CC2CC2)[C@H]1O5 [Compound AN-1, N-(naltrexone-6-enol-carbonyl-methylamino)ethylamine-D-arginine-malonic acid]
EC50 ([6]; Antagonist EC50, Table 1, Example 9, 37° C. 10 min): 180 nM
NTX/Compound AN-1 relative potency ([6]; EC50 at the human μ-opioid receptor, naltrexone to Compound AN-1): 6.0
AUC [2]: 139 ± 32 ng·h/mL
Cmax [2]: 41 ± 13 ng/mL
Tmax [2]: 45 ± 17.4 min
effect on morphine induced analgesia (% MPE, tail flick) [7]: no inhibition of analgesia
Cmax ([5]; 10 mg/kg): 46300 ng/mL
relative plasma/CSF partitioning coefficient of Compound AN-1 to naltrexone ([8]; 620/9.6): about 65
Compound conc. in CSF [8, 9]: 74.7 ng/mL
Compound conc. in plasma [8, 9]: 46,300 ng/mL
Plasma/CSF partitioning coefficient [8, 9]: 620

C=CCN1CC[C@]23c4c5ccc(O)c4O[C@H]2C(OC(=O)N(C)CCNC(=O)[C@@H](CCCNC(=N)N)NC(=O)CC(=O)O)=CC[C@@]3(O)C1C5 [Compound AN-4, N-(naloxone-6-enol-carbonyl-methylamino)ethylamine-D-arginine-malonic acid]
Compound conc. in CSF [8, 10]: 101 ng/mL
Compound conc. in plasma [8, 10]: 49,200 ng/mL
Plasma/CSF partitioning coefficient [8, 10]: 487

CN(CCNC(=O)[C@@H](CCCCN)NC(=O)CC(=O)O)C(=O)OC1=CC[C@@]2(O)C3Cc4ccc(O)c5c4[C@@]2(CCN3CC2CC2)[C@H]1O5 [Compound AN-6, N-(naltrexone-6-enol-carbonyl-methylamino)ethylamine-D-lysine-malonic acid]
effect on morphine induced analgesia (% MPE, tail flick) [7]: no inhibition of analgesia
Compound conc. in CSF [8, 10]: 95.0 ng/mL
Compound conc. in plasma [8, 10]: 79,400 ng/mL
Plasma/CSF partitioning coefficient [8, 10]: 836

CC(=O)N[C@H](CC(=O)O)C(=O)NCCN(C)C(=O)OC1=CC[C@@]2(O)C3Cc4ccc(O)c5c4[C@@]2(CCN3CC2CC2)[C@H]1O5 [Compound AN-7, N-(naltrexone-6-enol-carbonyl-methylamino)ethylamine-D-aspartic acid-acetate]
EC50 ([6]; Antagonist EC50, Table 15, Example 24): 300 nM
NTX/Compound AN-7 relative potency ([6]; EC50 at the human μ-opioid receptor, naltrexone to Compound AN-7): 8.6
Compound conc. in CSF [8, 10]: 462 ng/mL
Compound conc. in plasma [8, 10]: 76,600 ng/mL
Plasma/CSF partitioning coefficient [8, 10]: 166

O=C1CC[C@@]2(O)[C@H]3Cc4ccc(O)c5c4[C@@]2(CCN3CC2CC2)[C@H]1O5 [Naltrexone, naltrexone, reference compound]
effect on morphine induced analgesia (% MPE, tail flick) [7]: rapid inhibition of analgesia
Compound conc. in plasma [4]: 9.17 ng/mL
concentration at 2 min [8, 9]: 7.44 ng/mL
concentration at 2 min ([8]; IV 10 mg/kg Compound AN-3, 2-minute time point): 0.813 ng/mL
Compound conc. in plasma [8, 9]: 71.1 ng/mL

Source: patent US20130079364A1, “Peripheral Opioid Agonists and Peripheral Opioid Antagonists” (SIGNATURE THERAPEUTICS, INC., priority 2010, published 2013)
